# Results as given in publication PMC7093416, “Selective USP7 inhibition elicits cancer cell killing through a p53-dependent mechanism” (Scientific Reports, 2020).
# Columns and labels:
# [1] = target: T1, USP7 catalytic domain (Homo sapiens, UniProt Q93009); experiment: Intact MS / CE-MS labeling of purified USP7 catalytic domain; type: binding; conditions: 2.5-fold molar excess compound
# T1 construct: catalytic domain (208–560) used were cloned as described; inferred from Ni-NTA purification; made in house; host or cells: E. coli BL21 (DE3)
# T1 sequence (Q93009 208-560): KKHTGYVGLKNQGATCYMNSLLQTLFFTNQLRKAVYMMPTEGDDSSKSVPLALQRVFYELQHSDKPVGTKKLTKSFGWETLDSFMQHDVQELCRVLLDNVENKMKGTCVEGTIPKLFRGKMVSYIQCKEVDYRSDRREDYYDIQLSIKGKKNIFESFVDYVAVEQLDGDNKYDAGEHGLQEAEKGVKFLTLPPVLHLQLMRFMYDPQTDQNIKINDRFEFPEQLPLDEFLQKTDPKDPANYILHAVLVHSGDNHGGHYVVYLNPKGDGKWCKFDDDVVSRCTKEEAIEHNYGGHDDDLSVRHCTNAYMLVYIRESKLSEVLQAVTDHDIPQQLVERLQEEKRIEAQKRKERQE
# Method: Purified USP7 catalytic domain was diluted to 20 μM in 10 μL labeling buffer (20 mM HEPES pH 7.5, 150 mM NaCl, 1 mM TCEP) and incubated for the indicated times with 50 μM (2.5×) compound. After incubation, samples were flash frozen in liquid nitrogen and stored at −80 °C until analysis.
# Intact mass analysis was performed by injecting 5 µg USP7 catalytic domain onto a self-packed reversed phase column (1/32” O.D. × 500 um I.D., 5 cm of POROS 10R2 resin). After desalting, protein was eluted with an HPLC gradient (0–100% B in 4 minutes, A = 0.2 M acetic acid in water, B = 0.2 M acetic acid in acetonitrile, flow rate ~30 µL/min) into an LTQ ion trap mass spectrometer (ThermoFisher Scientific, San Jose, CA). Mass spectra were processed using MagTran1.03b2[52].
# Peptides were desalted using SP3[53], dried by vacuum centrifugation, and reconstituted in 1% formic acid/50% acetonitrile with 100 mM ammonium acetate. Peptides were then analyzed by CE-MS using a ZipChip CE system and autosampler (908 Devices, Boston, MA) interfaced to a QExactive HF mass spectrometer (ThermoFisher Scientific, San Jose, CA). Peptide solution was loaded for 30 seconds, and the mass spectrometer was operated in data dependent mode and subjected the 5 most abundant ions in each MS scan (60k resolution, 3E6 target, lock mass enabled) to MS/MS (15k resolution, 1E5 target, 100 ms max inject time). […]
# [2] = target: USP7 (Homo sapiens, UniProt Q93009); experiment: In vitro DUB profiling (Ubiquigent, Ub-Rho), USP7; type: biochemical; conditions: 1 µM, 15-minute pre-treatment
# USP7, sequence (Q93009 whole entry): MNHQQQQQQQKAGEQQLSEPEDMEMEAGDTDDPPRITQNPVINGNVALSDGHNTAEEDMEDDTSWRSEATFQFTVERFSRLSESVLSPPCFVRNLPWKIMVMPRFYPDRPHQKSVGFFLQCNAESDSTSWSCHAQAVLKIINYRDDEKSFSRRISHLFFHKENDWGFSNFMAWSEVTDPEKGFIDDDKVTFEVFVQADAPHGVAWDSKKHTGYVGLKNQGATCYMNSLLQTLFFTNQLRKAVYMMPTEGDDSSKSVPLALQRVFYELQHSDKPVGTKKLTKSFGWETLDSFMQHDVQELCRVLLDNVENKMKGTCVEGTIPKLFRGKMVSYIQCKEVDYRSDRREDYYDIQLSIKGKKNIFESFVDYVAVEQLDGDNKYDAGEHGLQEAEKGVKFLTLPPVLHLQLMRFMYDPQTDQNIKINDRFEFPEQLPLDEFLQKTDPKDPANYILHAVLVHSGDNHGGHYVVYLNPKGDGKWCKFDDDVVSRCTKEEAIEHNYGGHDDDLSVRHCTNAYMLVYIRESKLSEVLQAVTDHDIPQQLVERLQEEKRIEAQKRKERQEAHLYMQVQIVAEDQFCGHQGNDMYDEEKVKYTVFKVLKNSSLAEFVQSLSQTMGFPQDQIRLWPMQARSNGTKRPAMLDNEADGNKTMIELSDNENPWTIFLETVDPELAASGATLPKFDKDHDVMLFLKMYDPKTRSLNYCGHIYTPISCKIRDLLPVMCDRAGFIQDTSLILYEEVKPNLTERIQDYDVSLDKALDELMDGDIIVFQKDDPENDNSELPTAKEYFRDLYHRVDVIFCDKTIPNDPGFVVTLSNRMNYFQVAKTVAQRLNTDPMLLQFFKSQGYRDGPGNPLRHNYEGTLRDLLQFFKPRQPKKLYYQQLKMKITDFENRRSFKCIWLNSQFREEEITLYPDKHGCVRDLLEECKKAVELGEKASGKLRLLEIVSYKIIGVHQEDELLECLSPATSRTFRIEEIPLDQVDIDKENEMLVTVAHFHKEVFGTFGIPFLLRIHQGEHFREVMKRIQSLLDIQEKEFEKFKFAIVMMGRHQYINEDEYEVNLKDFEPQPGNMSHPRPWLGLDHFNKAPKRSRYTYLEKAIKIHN
# Method: Compounds were screened using the Ubiquigent Drug Profiler SPT system (www.ubiquigent.com/drug-discovery-services/dubprofiler/). Each of 41 purified DUBs was incubated with compound for 15 minutes, then ubiquitin rhodamine 110 (Ub-Rho) was added and percent inhibition determined based on fluorescence relative to a DMSO control.
# [3] = target: T2, RPS19 (Homo sapiens, UniProt P39019); experiment: XL177A-DTB chemoproteomic profiling with XL177A competition, RPS19; type: binding; conditions: RPS19 reporter ion intensity
# T2 construct: endogenous in cells; host or cells: HEK 293AD lysate
# Method: HEK 293AD cells were lysed as described above, and the lysate was cleared by centrifugation. Samples were diluted to 10 mg/mL, and 200 μL lysate (2 mg protein total) was incubated with the indicated concentrations of XL177A for 4 hours at RT, then 2 μM of WH114A for 4 additional hours. SDS was added to a final concentration of 1.2% (27.2 μL of a 10% stock), and denatured by heating to 80 °C for 5 minutes. After cooling to RT, 1125 μL 1X PBS was added to dilute the final SDS concentration to 0.2%. 50 μL streptavidin agarose slurry was added to each sample, followed by incubation at RT for 3 hours. After streptavidin enrichment, samples were washed vigorously (2×0.2% SDS, 3x PBS, 3x ddH2O). After the final wash, all supernatant was removed using a flat-bottom tip, and the resin was flash frozen and stored at −80 °C until workup for TMT labeling.
# To remove rapigest, recovered supernatants were acidified with 10% TFA, incubated at 37 °C for 45 minutes, and centrifuged at 14,000 rpm for 15 minutes at 4 °C. Peptides were then desalted by C18, and dried by vacuum centrifugation. Dried peptides were reconstituted in 50 mM pH8.0 TEAB and labeled with TMT reagent at RT for 1 hour. TMT reactions were pooled and treated with hydroxylamine according to the manufacturer’s instructions. Peptide mixtures were then dried, reconstituted in 50 mM ammonium bicarbonate and desalted by SP3[53]. Eluted peptides were then analyzed by nanoflow LC-MS/MS as described[64] with a NanoAcquity UPLC system (Waters, Milford, MA) interfaced to a QExactive HF mass spectrometer (Thermofisher Scientific, San Jose, CA). TMT labeled peptides were injected onto a precolumn (4 cm POROS 10R2, Applied Biosystems, Framingham, MA), resolved on an analytical column (30 µm I.D. × 50 cm packed with 5 µm Monitor C18) and introduced to the mass spectrometer by ESI (spray voltage = 3.5 kV, flow rate ~30 nL/min). The mass spectrometer was operated in data dependent mode such that the 15 most abundant ions in each MS scan (m/z 300–2000, 120 K resolution, target = 3E6, lock mass for 445.120025 enabled) were subjected to MS/MS (m/z 100–2000, 30 K resolution, target = 1E5, max fill time = 100 ms). Dynamic exclusion was selected with a repeat count of 1 and an exclusion time of 30 seconds. MS/MS data was extracted to.mgf using mulitplierz scripts[54],[55] and searched against a forward-reverse human NCBI refseq database using Mascot version 2.6. Search parameters specified fixed carbamidomethylation of cysteine, fixed N-terminal and lysine TMT labelling, and variable oxidation (methionine). Additional multiplierz scripts were used to filter results to 1% FDR and derive protein-level aggregate reporter ion intensities using peptides mapping uniquely into the genome.
# [4] = XL177A-DTB pulldown, HEK293AD lysate pre-treated 100nM XL177A
# [5] = XL177A-DTB pulldown, HEK293AD lysate pre-treated 1uM XL177A
# [6] = XL177A-DTB pulldown, HEK293AD lysate pre-treated 10uM XL177A
# [7] = average of Run 1 and Run 2, 100nM XL177A
# [8] = average of Run 1 and Run 2, 1uM XL177A
# [9] = average of Run 1 and Run 2, 10uM XL177A
compound,measurement,setting,value
CN1CCN(CCC(=O)Nc2ccc3c(=O)n(CC4(O)CCN(C(=O)[C@@H](CCCNC(=O)c5ccc6c(Cl)c7c(nc6c5)CCCC7)Cc5ccccc5)CC4)cnc3c2)CC1 [XL177A],labeling of USP7 catalytic domain by MS,[1],Quantitative labeling
same,USP7 enzymatic activity,[2],completely inhibited
same,Run 1 100nM 1,[3]; [4],201720
same,Run 1 100nM 2,[3]; [4],193904
same,Run 1 100nM 3,[3]; [4],198261
same,Run 2 100nM 1,[3]; [4],185482
same,Run 2 100nM 2,[3]; [4],186116
same,Run 2 100nM 3,[3]; [4],181339
same,Run 1 1uM 1,[3]; [5],206285
same,Run 1 1uM 2,[3]; [5],969196
same,Run 1 1uM 3,[3]; [5],327663
same,Run 2 1uM 1,[3]; [5],160877
same,Run 2 1uM 2,[3]; [5],741636
same,Run 2 1uM 3,[3]; [5],244076
same,Run 1 10uM 1,[3]; [6],152789
same,Run 1 10uM 2,[3]; [6],213160
same,Run 2 10uM 1,[3]; [6],210280
same,Run 2 10uM 2,[3]; [6],197443
same,AVE 100nM 1,[3]; [7],193601
same,AVE 100nM 2,[3]; [7],190010
same,AVE 100nM 3,[3]; [7],189800
same,AVE 1uM 1,[3]; [8],183581
same,AVE 1uM 2,[3]; [8],855416
same,AVE 1uM 3,[3]; [8],285870
same,AVE 10uM 1,[3]; [9],181534
same,AVE 10uM 2,[3]; [9],205302
